Key:
[1] = Polymorph stress test: purity by HPLC-UV after storage; format: physicochemical; details: for Purity by HPLC-UV, average: average over time points
Description: Samples of polymorph Form Ib and polymorph Form II were analyzed for purity by HPLC-UV according to method AM-5-ASP001 performed by gradient liquid chromatography with UV-detection at 237 nm. A Hypersil GOLD column from Thermo Scientific (250×4.6 mm, 5 μm) was used at a temperature of 30° C. A Dionex STH 585 column oven was used with a Dionex P580 gradient pump and a flow rate of 1.0 ml/min (gradient elution). A Dionex Degasys DG-1210 degasser and a Gynkotek Gina 50 autosampler injector were used with an injection volume of 5 μL. A Dionex PDA-100 photodiode array detector was used at a wavelength of 237 nm. Sample runtime was 46 minutes. The samples were tested on the day of synthesis (zero point) and at 1, 2, and 4 weeks storage at ambient conditions (i.e., room temperature and room humidity), at 25° C. (+/−2° C.) and 60% relative humidity (RH) (+/−5% RH), and at 40° C. (+/−2° C.) and 75 RH (+/−5% RH). Test results are provided in Table 8 (Form Ib) and Table 9 (Form II), wherein the values provided are the area %.

[2] = Polymorph stress test: water content by Karl Fisher titration after storage; format: physicochemical; details: for Water content (Karl Fisher): dipotassium salt
Description: Samples of polymorph Form Ib and polymorph Form II also were analyzed for water content using Karl Fisher titration according to method AM-1-General/water content. A columetric Karl Fisher titrator (DL39, Mettler Toledo) was used with a Stromboli drying oven (Mettler Toledo), a generator electrode, and a standard analytical balance (at least […] accuracy). Instrument conditions were set for an oven temperature of 150° C., a gas flow rate of 100.0 mL/min, and a stirrer speed of 50%. Control parameters were set for a max time of 600 s, a current of 2.0 μA, an end point of 100 mV, and a generation speed set at normal. The samples were tested on the day of synthesis (zero point) and at 1, 2, and 4 weeks storage at ambient conditions (i.e., room temperature and room humidity), at 25° C. (+/−2° C.) and 60% relative humidity (RH) (+/−5% RH), and at 40° C. (+/−2° C.) and 75% RH (+/−5% RH). Test results are provided in Table 10 (Form Ib) and Table 11 (Form II), wherein the values provided are the percent water content.

[3] = 1 week storage, 25° C./60% RH, dipotassium salt
[4] = 1 week storage, 40° C./75% RH, dipotassium salt
[5] = 1 week storage, ambient conditions, dipotassium salt
[6] = 2 weeks storage, 25° C./60% RH, dipotassium salt
[7] = 2 weeks storage, 40° C./75% RH, dipotassium salt
[8] = 2 weeks storage, ambient conditions, dipotassium salt
[9] = 4 weeks storage, 25° C./60% RH, dipotassium salt
[10] = 4 weeks storage, 40° C./75% RH, dipotassium salt
[11] = 25° C./60% RH, dipotassium salt
[12] = 40° C./75% RH, dipotassium salt
[13] = ambient conditions, dipotassium salt
[14] = zero point (day of synthesis), dipotassium salt
[15] = 1 week storage, ambient conditions
[16] = 2 weeks storage, ambient conditions
[17] = 4 weeks storage, ambient conditions
[18] = 25° C. (+/−2° C.) and 60% relative humidity (+/−5% RH)

C=C(C[C@H](NC(=O)c1ccc(CCc2ccc3nc(N)nc(N)c3c2)cc1)C(=O)[O-])C(=O)[O-].[K+].[K+] [Form II, (S)-2-{4-[2-(2,4-diamino-quinazolin-6-yl)-ethyl]-benzoylamino}-4-methylene-pentanedioic acid, dipotassium salt]
Purity by HPLC-UV [1, 3]: 96.53 area % | Purity by HPLC-UV [1, 4]: 96.43 area % | Purity by HPLC-UV [1, 5]: 96.42 area % | Purity by HPLC-UV [1, 6]: 96.24 area % | Purity by HPLC-UV [1, 7]: 96.35 area % | Purity by HPLC-UV [1, 8]: 96.49 area % | Purity by HPLC-UV [1, 9]: 96.24 area % | Purity by HPLC-UV [1, 10]: 95.52 area % | Purity by HPLC-UV, average [1, 11]: 96.44 area % | Purity by HPLC-UV, average [1, 12]: 96.10 area % | Purity by HPLC-UV, average [1, 13]: 96.49 area % | Purity by HPLC-UV [1, 14]: 96.46 area % | Water content (Karl Fisher) ([2]; 1 week storage, 25° C./60% RH): 17.0% | Water content (Karl Fisher) ([2]; 1 week storage, 40° C./75% RH): 21.2% | Water content (Karl Fisher) [2, 15]: 18.7% | Water content (Karl Fisher) ([2]; 2 weeks storage, 25° C./60% RH): 16.3% | Water content (Karl Fisher) ([2]; 2 weeks storage, 40° C./75% RH): 24.4% | Water content (Karl Fisher) [2, 16]: 21.1% | Water content (Karl Fisher) ([2]; 4 weeks storage, 25° C./60% RH): 16.5% | Water content (Karl Fisher) ([2]; 4 weeks storage, 40° C./75% RH): 26.6% | Water content (Karl Fisher) [2, 17]: 21.9% | Storage stability (in words) [2, 18]: stable | Water uptake on storage (in words) [2, 18]: no significant water uptake | Water content (Karl Fisher) ([2]; zero point (day of synthesis)): 15.6%

C=C(C[C@H](NC(=O)c1ccc(CCc2ccc3nc(N)nc(N)c3c2)cc1)C(=O)[O-])C(=O)[O-].[K+].[K+] [Form Ib, (S)-2-{4-[2-(2,4-diamino-quinazolin-6-yl)-ethyl]-benzoylamino}-4-methylene-pentanedioic acid, dipotassium salt]
Purity by HPLC-UV [1, 3]: 95.96 area % | Purity by HPLC-UV [1, 4]: 95.87 area % | Purity by HPLC-UV [1, 5]: 95.87 area % | Purity by HPLC-UV [1, 6]: 95.67 area % | Purity by HPLC-UV [1, 7]: 95.43 area % | Purity by HPLC-UV [1, 8]: 95.78 area % | Purity by HPLC-UV [1, 9]: 95.85 area % | Purity by HPLC-UV [1, 10]: 95.34 area % | Purity by HPLC-UV [1, 17]: 95.91 area % | Purity by HPLC-UV, average [1, 11]: 95.83 area % | Purity by HPLC-UV, average [1, 12]: 95.55 area % | Purity by HPLC-UV, average [1, 13]: 95.88 area % | Purity by HPLC-UV [1, 14]: 95.94 area % | Water content (Karl Fisher) ([2]; 1 week storage, 25° C./60% RH): 16.0% | Water content (Karl Fisher) ([2]; 1 week storage, 40° C./75% RH): 19.6% | Water content (Karl Fisher) [2, 15]: 16.2% | Water content (Karl Fisher) ([2]; 2 weeks storage, 25° C./60% RH): 15.5% | Water content (Karl Fisher) ([2]; 2 weeks storage, 40° C./75% RH): 22.7% | Water content (Karl Fisher) [2, 16]: 16.5% | Water content (Karl Fisher) ([2]; 4 weeks storage, 25° C./60% RH): 16.4% | Water content (Karl Fisher) ([2]; 4 weeks storage, 40° C./75% RH): 26.8% | Water content (Karl Fisher) [2, 17]: 18.4% | Water content (Karl Fisher) ([2]; zero point (day of synthesis)): 14.8%

C=C(C[C@H](NC(=O)c1ccc(CCc2ccc3nc(N)nc(N)c3c2)cc1)C(=O)[O-])C(=O)[O-].[K+].[K+] [Form I, (S)-2-{4-[2-(2,4-diamino-quinazolin-6-yl)-ethyl]-benzoylamino}-4-methylene-pentanedioic acid, dipotassium salt]
Water uptake on storage (in words) [2, 18]: no significant water uptake

Reference: patent publication US20110124650A1, “STABLE CRYSTALLINE SALTS OF ANTIFOLATE COMPOUNDS” (Chelsea Therapeutics, Inc., priority 2009, published 2011)
